Two molecules from patent US20250129101A1, “Compound, Pharmaceutical Composition Comprising the Same and Method for Treating Cancer Using the Same” (NATIONAL TSING HUA UNIVERSITY, priority 2023, published 2025) can be followed below.

Read-outs that look alike come from different tables or passages of the source.

In data set [1] the target is T1, KIF2A (Homo sapiens, UniProt O00139).
T1 construct: KIF2A (181-562 a.a.); 6xHis (C); made in house; host or cells: E. coli BL21 (DE3), pET-28a
Put plainly: In vitro kinesin assay, KIF2A. Particulars: 50 μM (FIG. 4I). The data set is classed as biochemical. On the procedure:
(§1) In vitro kinesin activity was measured using malachite green-based phosphate colorimetric assay (BioVision). […] The microtubules from porcine brain tubulin (Cytoskeleton) or purified from HEK293 cells in Free-style medium (293Fs) were dissolved in the BRB80 buffer (80 mM PIPES pH 6.8, 1 mM EGTA, 1 mM MgCl2, 1 mM GTP, 1 mM DTT, and 10% DMSO) at 37° C. for 2 hr. Phosphates released from kinesin-mediated ATP hydrolysis was measured by adding 30 μL of the phosphate colorimetric reagent (BioVision), incubated for 10 min, and then measured with absorbance at 650 nm.
(§2) Constructs of sN+M regions of KIF2C (216-598 a.a.), KIF2A (181-562 a.a.) and KIF2B (171-553 a.a.) with C-terminal 6×His tag were subcloned into pET-28a vector and expressed in BL21 (DE3) E. coli cells (Novartis) cultured in Luria-Bertani medium supplemented with 50 ug/mL kanamycin at 37° C. After induction with 0.8 mM IPTG for 18 hr at 20° C., the cells were pelleted by centrifugation at 6000 rpm for 30 min at 10° C. The collected pellets were resuspended in 30 mL of buffer A (20 mM Tris-HCl pH 7.5, 500 mM NaCl, 10 mM imidazole, 1% CHAPS, and 1 mM PMSF) and next subjected to a high-pressure homogenizer (EmulsiFlex-C3) for cell lysis. After removing the cell debris by centrifugation at 13000 rpm for 30 min at 10° C., the recombinant Kinesin-13 in the supernatant was purified using nickel affinity chromatography. […]

Data set [2] concerns 4T1 cells. Put plainly: Flow cytometry analysis of cell membrane penetration ability. The data set is classed as cell-based, mouse. Particulars: 2 hr of drug treatment. On the procedure: To quantify the cell membrane penetration ability of different DHTP analogs, 4T1 cells were collected by trypsin after 2 hr of drug treatment and then transferred into microcentrifuge tubes. 4T1 cells were then resuspended into the FACS buffer (1% FBS, 2 mM EDTA, and 0.05% NaN3 in PBS). After two times of FACS buffer rinsing, these samples were detected by flow cytometry (Cyto FLEX™ FLOW Cytometer). The KO525 (405 nm laser; 525 nm filter) channel was used to detect DHTP and 7S9.
In general terms: Flow cytometry measures light scatter and fluorescence of single cells or particles in a stream.

In data set [3] the target is T2, KIF2C (Homo sapiens, UniProt Q99661).
T2 construct: KIF2C (216-598 a.a.); 6xHis (C); made in house; host or cells: E. coli BL21 (DE3), pET-28a
T2 sequence (Q99661 216-598): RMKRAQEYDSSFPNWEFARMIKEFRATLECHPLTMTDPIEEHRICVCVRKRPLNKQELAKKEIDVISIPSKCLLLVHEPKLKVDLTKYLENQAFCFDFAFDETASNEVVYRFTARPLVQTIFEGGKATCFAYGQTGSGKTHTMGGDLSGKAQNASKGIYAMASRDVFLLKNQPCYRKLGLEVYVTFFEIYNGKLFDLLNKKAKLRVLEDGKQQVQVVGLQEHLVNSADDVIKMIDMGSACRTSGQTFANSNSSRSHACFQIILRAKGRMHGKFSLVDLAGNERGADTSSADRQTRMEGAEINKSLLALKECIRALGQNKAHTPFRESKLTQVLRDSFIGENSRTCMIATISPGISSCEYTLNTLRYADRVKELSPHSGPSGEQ
Put plainly: In vitro validation: KIF2C kinesin activity, malachite green-based phosphate colorimetric assay. The data set is classed as biochemical. Summed up:
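KIF2C sN+M construct (aa 216-598, C-terminal 6×His, E. coli-expressed) ATPase activity with microtubules from porcine brain tubulin or HEK293 (293Fs) cells in BRB80 (80 mM PIPES pH 6.8, 1 mM GTP, 10% DMSO), 37° C for 2 hr. Released phosphate detected by malachite green reagent, 10 min, A650.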

Data set [4] concerns MDA-MB-231 R, MDA-MB-231 S, 4T1 S1, R4, and R8 cells. Put plainly: Cell viability of indicated cell lines, DHTP or 7S9 for 72 hr. In kind it is cell-based. Particulars: MDA-MB-231 R. The protocol:
(§3) The cancer cells were cultured in a 96-well plate at a confluence of 1000-2000 cells/well with indicated drugs for specific days. When the time was up, the culture medium in the plate was aspirated and replaced with a prepared CellTiter-Glo reagent/DMEM mixture (1:1 mix of CellTiter-Glo reagent and serum-supplemented DMEM). After incubation for 10 min, the luminescence (proportional to the number of living cells) was measured with an ELISA plate reader to determine the cell viability.

For data set [5], the system named is MDA-MB-231 cells. The data set is described as follows: Cell validation: cytotoxicity in MDA-MB-231 cells (CellTiter-Glo). In kind it is cell-based. In short, it runs like this: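 MDA-MB-231 cells were seeded at 2000 cells/well and exposed to compounds for the specified number of days. Medium was then replaced with a 1:1 CellTiter-Glo reagent/serum-supplemented DMEM mix for 10 min, and viability was read as luminescence, proportional to living cell number.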
For orientation: Cellular ATP, detected with luciferase, serves as a proxy for viable cell number.

Data set [6] deals with T3, KIF2B (Homo sapiens, UniProt Q8N4N8).
T3 construct: KIF2B (171-553 a.a.); 6xHis (C); made in house; host or cells: E. coli BL21 (DE3), pET-28a
T3 sequence (Q8N4N8 171-553): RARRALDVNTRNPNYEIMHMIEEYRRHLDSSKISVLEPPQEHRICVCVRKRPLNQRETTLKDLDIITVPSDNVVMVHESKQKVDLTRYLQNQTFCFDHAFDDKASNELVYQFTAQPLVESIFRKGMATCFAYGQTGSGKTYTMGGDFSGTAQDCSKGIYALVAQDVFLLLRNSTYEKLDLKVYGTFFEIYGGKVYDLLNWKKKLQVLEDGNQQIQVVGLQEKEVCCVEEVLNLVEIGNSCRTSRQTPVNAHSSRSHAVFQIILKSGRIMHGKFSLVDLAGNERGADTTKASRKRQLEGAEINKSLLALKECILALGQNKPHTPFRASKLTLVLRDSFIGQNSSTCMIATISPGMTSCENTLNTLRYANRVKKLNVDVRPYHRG
Put plainly: In vitro kinesin assay, KIF2B. In kind it is biochemical. Particulars: 50 μM (FIG. 4I). On the procedure:
as §1, §2

For data set [7], the system named is HeLa cells expressing H2B-mCherry and eGFP-tubulin. The data set is described as follows: Live-cell imaging of intracellular microtubule distribution. In kind it is cell-based. The protocol:
For the microtubule distribution analysis, HeLa cell line stably expressing H2B-mCherry and eGFP-tubulin (a kind gift from Anthony A. Hyman, Max-Planck-Institute for Molecular Cell Biology and Genetics, Dresden, Germany) were treated with KIF2C inhibitors (10 μM DHTP or 10 μM 7S9) during imaging. Live-cell imaging was conducted on a Nikon T1 inverted fluorescence microscope (Nikon) with a 60× oil objective (Nikon), a Prime camera (Photometrics), and 37° C., 5% CO2 heat stage (Live Cell Instrument). Microtubule morphological changes were imaged at 3-min intervals. Images were obtained using ImageJ software processed with Gaussian Blur to remove the noise.

The test system of data set [8] is 4T1 R cells. The data set is described as follows: Cell viability assay, chemoresistant 4T1 R cells. Particulars: 4T1 R versus S cells, 72 hr paclitaxel. In kind it is cell-based, mouse. On the procedure: as §3
(§4) The expression levels of KIF2A, KIF2B, and KIF2C in these cell lines were compared using Western blotting.

The subject of data set [9] is 4T1 R4. The data set is described as follows: In vivo tumor growth inhibition, 4T1 R4 syngeneic model. Further details: species or system mouse. The note with it: R4 tumors, BALB/c mice, paclitaxel 15 mg/kg intraperitoneally, 5on/2off two cycles. On the procedure:
(§5) The mice were housed at the National Health Research Institute (NHRI) Animal Center in accordance with the Institutional Animal Care and Use Committee procedures and guidelines. The 4T1-derived cells, including 4T1, 4T1 R4, and 4T1 R8, used for implantation were harvested during log phase growth and resuspended in phosphate-buffered saline. Each mouse was injected s.c. in the right flank with 5×10^5 cells. After tumor size reached 60-100 mm 3 (D1), mice were divided into groups and received treatment with vehicle or different compounds alone or in combinations. Tumor size, in mm 3, was measured twice per week and calculated from Tumor volume=(w 2×1)/2, where w=width and 1=length in mm of the tumor. The values of tumor size were expressed as mean±SEM.

The test system of data set [10] is 4T1 S1 cells. Put plainly: Colony formation assay, 4T1 S1 cells. Particulars: 400 nM paclitaxel. The data set is classed as cell-based, mouse. On the procedure: To assess the long-term survival of breast cancer cell lines following the treatment of KIF2C knockdown or inhibition, the cells trypsinized into single-cell suspension were homogeneously seeded in 6-well cell culture plates at a density of 5000 cells per dish, supplemented with 2× complete medium (50% 4×DMEM, 20% FBS, 2% penicillin-streptomycin, ddH2O, and 2× glutaMAX™), agarose (0.6% for bottom agar layer; 0.3% for top cell layer), ddH2O, and DMEM. After incubation for 24 hr, cells were treated with indicated drugs, such as DMSO, KIF2C inhibitors, or chemotherapy drugs, and then cultured at 37° C. incubator in an atmosphere of humidified air with 5% CO2 for a further 14-30 days. When the cell colonies grew to appropriate sizes, the culture mediums were replaced with PBS for washing. After that, the plates were stained with 10% crystal violet and analyzed using Image J.

For data set [11], the system named is 4T1 S1 cells. Put plainly: Cell viability assay, 4T1 S1 cells. The note with it: Mus musculus, 72 hr, read-out: IC50, single treatment. In kind it is cell-based. The protocol: (§6) MCF-7, MDA-MB-231, MDA-MB-468, Hs578T, 4T1, and HeLa cell lines stably expressing H2B-mCherry and eGFP-tubulin (kindly provided by Dr. Anthony A. Hyman, Max-Planck-Institute for Molecular Cell Biology and Genetics, Dresden, Germany) were cultured in high-glucose Dulbecco's Modified Eagle Medium (DMEM). SK-BR-3 cells were cultured in McCoy's Modified 5a Medium. Hs578T cells were cultured in high-glucose DMEM supplemented with an additional 0.01 mg/mL bovine insulin. […] All mentioned media were supplemented with 10% fetal bovine serum (Gibco) and 1% Penicillin/Streptomycin (Corning), and cells were incubated at 37° C. in a humidified atmosphere containing 5% CO2. HEK293 cells were cultured in HE300 medium (GMEP incorporated, Japan) and maintained in suspension culture with 125 rpm and 8% CO2.
as §3

For data set [12], the system named is 4T1 R8 cells. Put plainly: Cell viability assay, 4T1 R8 cells. In kind it is cell-based, mouse. On the procedure: as §6, §3
For data set [13], the system named is 4T1 cells. Put plainly: In vivo tumor growth inhibition, 4T1 syngeneic model. Further details: species or system mouse. The note with it: 4T1 tumors, BALB/c mice, paclitaxel 5 mg/kg intraperitoneally, 5on/2off two cycles. On the procedure: as §5
The subject of data set [14] is MDA-MB-231 R. Put plainly: Cell viability assay, chemoresistant MDA-MB-231 R cells. The data set is classed as cell-based. The note with it: MDA-MB-231 R versus S cells, 72 hr paclitaxel. On the procedure: as §3, §4
Data set [15] deals with 4T1 S1 cells. Put plainly: Time-lapse imaging of mitotic progression, 4T1 S1 cells. In kind it is cell-based, mouse. The note with it: paclitaxel (400 nM, FIG. 6D). The protocol: To investigate the role of KIF2C in cell cycle progression, 4T1 cells were cultured in the 4-well chamber slide with about 50% confluence. The culture medium was replaced with a CO2-independent medium (Gibco) supplemented with 10% fetal bovine serum (Biological Industries) and 1% penicillin-streptomycin (Biowest). Then, each well of the chamber slide was treated with indicated drugs, such as DMSO, KIF2C inhibitors, or chemotherapy drugs. After that, the chamber slide was maintained in the microscope stage incubator with the supplement of humidified air with 5% CO2 at 37° C. Multiple-positional time-lapse imaging was performed using an automated Leica DM16000 inverted microscope equipped with HCX PL FL 20×/0.4 and EMCCD camera (Andor Luca R, Belfast, UK). Sequential differential interference contrast (DIC) images of cells obtained at indicated intervals were further analyzed using Metamorph software (Molecular Devices).

Data set [16] has as its system 4T1 R4 cells. Put plainly: Cell viability assay, 4T1 R4 cells. In kind it is cell-based, mouse. The protocol: as §6, §3
[17] abbreviates: 72 hr, MTA with 2 μM 7S9, read-out: IC50 (nM), Combination.
[18] abbreviates: Mus musculus, 72 hr, drug alone, read-out: IC50 (nM), Single.
The mark [19] stands for this setting: Mus musculus, read-out: Paclitaxel IC50 (nM), C4 combination, with 10 μM C4.

T1 sequence (O00139 181-562): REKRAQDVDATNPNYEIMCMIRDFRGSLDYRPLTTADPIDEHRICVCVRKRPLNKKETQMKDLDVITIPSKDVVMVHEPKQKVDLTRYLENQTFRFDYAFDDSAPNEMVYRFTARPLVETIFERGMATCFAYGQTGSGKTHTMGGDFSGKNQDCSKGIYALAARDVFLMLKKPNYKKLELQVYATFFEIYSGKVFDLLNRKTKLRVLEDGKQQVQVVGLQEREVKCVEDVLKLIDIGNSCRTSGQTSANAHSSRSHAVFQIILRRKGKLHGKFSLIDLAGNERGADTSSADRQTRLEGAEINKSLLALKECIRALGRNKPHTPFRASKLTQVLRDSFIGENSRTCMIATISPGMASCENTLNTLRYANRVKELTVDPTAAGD

Broadly, the EC50 is the concentration that produces a half-maximal response. The low end stands for greater potency, the high end for weaker potency. As usually defined, the IC50 is the concentration that gives 50% inhibition. `CC1=C(C(=O)OC(C)C)C(c2ccc(Cl)cc2)n2c(s/c(=C\c3ccc(OCC(=O)O)cc3)c2=O)=N1` (stereo not drawn) [1S0 (1), reference compound]: in data set [1], the “inhibitory effect against KIF2A (in words)” value is listed as “inhibited all three members of the kinesin-13 family”. Also, the “cell penetration, fluorescence signal at 510 nm emission (in words)” value in data set [2] is listed as “no fluorescence signals”. Also, in data set [3] (50 μM (FIG. 4I)), the “inhibitory effect against KIF2C (in words)” value was “inhibited all three members of the kinesin-13 family”. Moreover, the “inhibition of KIF2C kinesin activity (in words)” value in data set [3] (100 μM (FIG. 4B)) is “could inhibit KIF2C kinesin activity”. Also, in data set [3] (concentration that inhibits 50% of KIF2C activity), the EC50 is under 10000 nM. The “cytotoxicity (in words)” value in data set [4] was “not cytotoxic”. Further, in data set [5] (72 hr), the “cytotoxicity on MDA-MB-231 cells (in words)” value is on record as “not cytotoxic”. The 50% inhibitory concentration (IC50) in data set [5] (Homo sapiens, cytotoxicity in MDA-MB-231 cells) was over 50000 nM. Further, the “inhibitory effect against KIF2B (in words)” value in data set [6] is “inhibited all three members of the kinesin-13 family”. Moreover, the “intracellular microtubule distribution phenotype (in words)” value in data set [7] is “tubulin aggregation phenotype was not detected”.

With `CC(=O)O[C@H]1C(=O)[C@@]2(C)[C@H]([C@H](OC(=O)c3ccccc3)[C@]3(O)C[C@H](OC(=O)[C@H](O)[C@@H](NC(=O)c4ccccc4)c4ccccc4)C(C)=C1C3(C)C)[C@]1(OC(C)=O)CO[C@@H]1C[C@@H]2O` [Paclitaxel, paclitaxel], the increase in chemoresistance came out at 11.8 fold in data set [8] and 2.5 fold in data set [14]. Further, the results for the tumor growth inhibition in [9] and in [13] were 41.7% and 31.3%, respectively. The “suppression of colony formation” value in [10] is reported as 80%. Further, the IC50 in data set [11] is 62 nM; in [12] (setting [17]), 6.1 nM; in [12] (setting [18]), 1120 nM; in [12] (setting [19]), 157 nM; in [16] (setting [17]), 6.4 nM; in data set [16] (setting [18]) it was 1540 nM. Further, the IC50 in [16] (setting [19]) was determined as 217 nM. Further, the “intracellular microtubule distribution phenotype (in words)” value in data set [7] is “significant accumulation of bundled microtubules at the cell periphery”. The “cells died in mitosis” value in data set [15] is “Approximately 40%”.
